We go through 6 compounds from US9790135B2, “Use of acylated carbonic esters of glycerol in agriculture” (AGRONUTRITION, priority 2013, dated 2017).

Data set [1] has as its system winter common wheat (variety Quality, ARVALIS). Description: Manganese content retained in leaves of treated winter common wheat. In kind it is in vivo. As for the experimental part:
A powder of manganese carbonate (MnCO3, CAS 598-62-9) having a mean particle size of substantially approximately 2 μm is prepared by grinding. A concentrated colloidal suspension comprising 58.7% of this powder in a liquid composition comprising 1.5% glycerol carbonate acetate (ECG-C2, as described in Example 3 and in Table 1), […], 7.5% water and 1% jojoba oil, the indicated percentages being percentages by mass. The concentrated colloidal suspension is diluted in water to form a treatment composition (Mn385) according to the invention which is suitable for applying, by spraying on the cultivated surface area, a quantity of manganese carbonate of 385 g per hectare of cultivated surface area.
There are also prepared: • a concentrated colloidal suspension as described in Example 4, and this concentrated colloidal suspension is diluted in water to form a nutritive composition (Mn457) according to the invention which is suitable for applying, by spraying, a quantity of manganese carbonate of 457 g per hectare of surface area; and • a concentrated colloidal suspension as described in Example 7, and this concentrated colloidal suspension is diluted in water to form a nutritive composition (Mn509) according to the invention which is suitable for applying, by spraying, a quantity of manganese carbonate of 509 g per hectare of cultivated surface area.
The nutritive compositions Mn385, Mn457 and Mn509 according to the invention are applied by spraying to plots of 4 parcels having a surface area of 16 m^2 cultivated with winter common wheat (variety “Quality”, ARVALIS).
There are also prepared in parallel: • on a plot of 4 16 m^2 parcels, a crop of winter common wheat treated by spraying with water, as negative control; and • on a plot of 4 16 m^2 parcels, a crop of winter common wheat treated with MnCO3 on its own (without adjuvant according to the invention) at a rate of 500 g per hectare, as control treatment; and • on a plot of 4 16 m^2 parcels, a crop of winter common wheat treated, by way of comparison, with a formulation of MANTRAC 500 at a rate of 500 g of MnCO3 per hectare.
The manganese content retained in the leaves of treated common wheat is measured one day (D+1), seven days (D+7), 14 days (D+14) and 21 days (D+21) after application. To that end, the leaves are removed and washed three times with water to remove the manganese carbonate that has not been absorbed by the plant, and the manganese absorbed into the leaves is then assayed. The results are given in Table 2 below and are expressed in ppm (μg of manganese per gram of leaf).
The kinetics of daily MnCO3 assimilation in the leaves are measured.

Data set [2] is described as follows: Stability of the concentrated colloidal suspension towards sedimentation. In kind it is physicochemical. The note with it: concentrated colloidal suspension of MnCO3 (and MnSO4) in glycerol/water with the adjuvant. As for the experimental part:
The concentrated colloidal suspension is stable towards sedimentation over time—in particular over a period of 12 months—and is capable of being stored at a temperature of from −50° C. to +50° C. without any alteration of its rheological properties or of the stimulating and/or nutritive properties of the nutritive composition obtained by dilution of the concentrated colloidal suspension. Such a concentrated colloidal suspension can therefore be proposed for sale, marketed and distributed while retaining the stimulating and/or nutritive properties of the nutritive composition.
Cyclic glycerol carbonate (CG) of formula (VI), glycerol, water and manganese carbonate (MnCO3) in the form of a solid in the divided state, the solid particles of which have a mean size of approximately 2 μm, are mixed.

The subject of data set [3] is soya. Description: Foliar manganese content of soya after foliar application of nutritive MnCO3 compositions. The note with it: soya crop, 500 g manganese carbonate per hectare.

As to manganese carbonate [MnCO3 on its own], the “results relative to the negative control (water) (in words)” value in data set [1] (500 g per hectare, without adjuvant) is “do not differ from the results obtained with the negative control”. The “manganese content retained in the leaves, D + 14” value in data set [1] (14 days after application) was 112.50 +/− 45.35 ppm (μg of manganese per gram of leaf). Besides, the “manganese content retained in the leaves, D + 21” value in data set [1] (21 days after application) is recorded as 95.43 +/− 5.95 ppm (μg of manganese per gram of leaf). Moreover, the “manganese content retained in the leaves, D + 1” value in data set [1] (one day after application, leaves washed three times with water) is recorded as 84.83 +/− 28.01 ppm (μg of manganese per gram of leaf). In data set [1] (seven days after application), the “manganese content retained in the leaves, D + 7” value was 74.83 +/− 19.14 ppm (μg of manganese per gram of leaf). On to `CCCCCCCCC(=O)OCC1COC(=O)O1` (stereo not drawn) [ECG-C9, cyclic α/α′-nonanoylated glycerol carbonic ester], for which, in data set [2], the “stability of the concentrated colloidal suspension (settling of particles)” value (from here on “stability”) was “stable over time”.

As for `CCCCCCCC/C=C\CCCCCCCC(=O)OCC1COC(=O)O1` (stereo not drawn) [ECG-C18:1, cyclic α/α′-oleylated glycerol carbonic ester], in data set [2], the “stability” value is on record as “stable over time”. Further, the “foliar manganese content reached (maximum) up to four days after application” value in data set [3] was “greater than 250 ppm”. Regarding `CCCCCCC(=O)OCC1COC(=O)O1` (stereo not drawn) [ECG-C7, cyclic α/α′-heptanoylated glycerol carbonic ester], in data set [2], the “stability” value is given as “stable over time”. On the same count and under the same terms, in the case of `C=CCCCCCCCCC(=O)OCC1COC(=O)O1` (stereo not drawn) [ECG-C11:1, cyclic α/α′-undecylenoylated glycerol carbonic ester] it was “stable over time”; in that of `CC(=O)OCC1COC(=O)O1` (stereo not drawn) [ECG-C2, cyclic α/α′-acetylated glycerol carbonic ester], “stable over time”.
